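Compound exposure: 48 hours, 5 concentrations, 96-well plates. At the GI50, growth is halved.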 The source made the active and inactive calls. Rule as the data show it: active = GI50 up to about 1.1 µM and inactive = higher.
Assays:
Test in all cases: NCI-60 cell line screen, 48 h
786-0 = test system: 786-0
BT-549 = test system: BT-549
CCRF-CEM = test system: CCRF-CEM
DU-145 = test system: DU-145
EKVX = test system: EKVX
HCT-15 = test system: HCT-15
HL-60 = test system: HL-60
HOP-62 = test system: HOP-62
HOP-92 = test system: HOP-92
MDA-MB-231 = test system: MDA-MB-231
MDA-N = test system: MDA-N
Malme-3M = test system: Malme-3M
NCI/ADR-RES = test system: NCI/ADR-RES
OVCAR-3 = test system: OVCAR-3
OVCAR-8 = test system: OVCAR-8
RPMI-8226 = test system: RPMI-8226
SF-295 = test system: SF-295
SNB-75 = test system: SNB-75
SK-MEL-2 = test system: SK-MEL-2
T47D = test system: T47D

SMILES	GI50 (786-0)	GI50 (BT-549)	GI50 (CCRF-CEM)	GI50 (DU-145)	GI50 (EKVX)	GI50 (HCT-15) [µM]	GI50 (HL-60)	GI50 (HOP-62)	GI50 (HOP-92)	GI50 (MDA-MB-231)	GI50 (MDA-N)	GI50 (Malme-3M)	GI50 (NCI/ADR-RES)	GI50 (OVCAR-3)	GI50 (OVCAR-8)	GI50 (RPMI-8226)	GI50 (SF-295)	GI50 (SNB-75)	GI50 (SK-MEL-2)	GI50 (T47D)
CCCc1c(O)nc2ccccc2c1O	> 100 µM (inactive)	> 100 µM (inactive)	> 100 µM (inactive)	> 100 µM (inactive)	> 100 µM (inactive)	> 100	> 100 µM (inactive)	> 100 µM (inactive)	> 100 µM (inactive)	> 100 µM (inactive)	> 100 µM (inactive)	> 100 µM (inactive)	> 100 µM (inactive)	> 100 µM (inactive)	> 100 µM (inactive)	> 100 µM (inactive)	> 100 µM (inactive)	> 100 µM (inactive)		
O=C1OCC=C1COC1OC(CO)C(O)C(O)C1O (stereo not given)	> 100 µM (inactive)		30.5 µM (inactive)	> 100 µM (inactive)	> 100 µM (inactive)	> 100	73.6 µM (inactive)	> 100 µM (inactive)	> 100 µM (inactive)	> 100 µM (inactive)	> 100 µM (inactive)	> 100 µM (inactive)	> 100 µM (inactive)	> 100 µM (inactive)	> 100 µM (inactive)	> 100 µM (inactive)	> 100 µM (inactive)	> 100 µM (inactive)	> 100 µM (inactive)	> 100 µM (inactive)
O=C1CCCC2=C1CC1=C(CCCC1=O)N2c1cccc([N+](=O)[O-])c1	> 100 µM (inactive)	> 100 µM (inactive)	> 100 µM (inactive)		> 100 µM (inactive)	> 100	> 100 µM (inactive)						> 100 µM (inactive)	> 100 µM (inactive)	> 100 µM (inactive)	> 100 µM (inactive)		> 100 µM (inactive)		
O=C1/C(=C/c2cccs2)NC(=S)N1CN1CCOCC1	> 100 µM (inactive)		> 100 µM (inactive)	> 100 µM (inactive)	> 100 µM (inactive)	> 100		> 100 µM (inactive)	> 100 µM (inactive)	> 100 µM (inactive)	> 100 µM (inactive)		> 100 µM (inactive)	> 100 µM (inactive)	> 100 µM (inactive)	> 100 µM (inactive)	> 100 µM (inactive)	> 100 µM (inactive)	> 100 µM (inactive)	
CS(=O)(=O)c1nc(-c2cc3c(c(S(C)(=O)=O)n2)CCC3)cc2c1CCC2	82.6 µM (inactive)	> 100 µM (inactive)	> 100 µM (inactive)	> 100 µM (inactive)	> 100 µM (inactive)	> 100	> 100 µM (inactive)	> 100 µM (inactive)		24.4 µM (inactive)	> 100 µM (inactive)		> 100 µM (inactive)	> 100 µM (inactive)	74.5 µM (inactive)	> 100 µM (inactive)	> 100 µM (inactive)	22.4 µM (inactive)	> 100 µM (inactive)	
CNC(=O)c1cccc2c(Nc3ccc(NS(C)(=O)=O)cc3OC)c3cccc(C)c3nc12	0.0483 µM (active)		0.0133 µM (active)		1.34 µM (inactive)	0.225	0.0131 µM (active)	0.0244 µM (active)	0.228 µM (active)			0.43 µM (active)	2.26 µM (inactive)	1.39 µM (inactive)	0.333 µM (active)	0.0525 µM (active)	0.0333 µM (active)	0.122 µM (active)	1.64 µM (inactive)	
O=c1[nH]nc(Nc2ccc(Cl)cc2)c2nnn(-c3ccc([N+](=O)[O-])cc3)c12	17.1 µM (inactive)	19.2 µM (inactive)	7.98 µM (inactive)	12.1 µM (inactive)	30.6 µM (inactive)	14.4	98.6 µM (inactive)	27.4 µM (inactive)	14.5 µM (inactive)	42.4 µM (inactive)		26.1 µM (inactive)	23.1 µM (inactive)		16.2 µM (inactive)	10.7 µM (inactive)	25.3 µM (inactive)	39.8 µM (inactive)	24.2 µM (inactive)	
COCCN(C(=O)c1ccccc1)C1CCC(=O)c2[nH]c3ccccc3c21 (stereo not given)	3.4 µM (inactive)	2.7 µM (inactive)	3.64 µM (inactive)	14.7 µM (inactive)	10.7 µM (inactive)	16.4	8.87 µM (inactive)	5.22 µM (inactive)	12.1 µM (inactive)	4.23 µM (inactive)		7.21 µM (inactive)	19.3 µM (inactive)	12.5 µM (inactive)	6.85 µM (inactive)	17.7 µM (inactive)	> 41 µM (inactive)	5.62 µM (inactive)	5.38 µM (inactive)	16.2 µM (inactive)
N#C/C(C(=S)NCc1ccccc1)=C(/N)N1CCCC1	> 100 µM (inactive)		> 100 µM (inactive)	> 100 µM (inactive)	> 100 µM (inactive)	> 100	> 100 µM (inactive)	> 100 µM (inactive)	44.9 µM (inactive)	> 100 µM (inactive)	> 100 µM (inactive)	> 100 µM (inactive)	> 100 µM (inactive)	> 100 µM (inactive)	> 100 µM (inactive)	> 100 µM (inactive)	> 100 µM (inactive)		> 100 µM (inactive)	25.1 µM (inactive)
COC(=O)CC(C)(N[S+]([O-])c1ccc(C)cc1)c1ccccc1 (stereo not given)	> 100 µM (inactive)			> 100 µM (inactive)	> 100 µM (inactive)	> 100	> 100 µM (inactive)	> 100 µM (inactive)	> 100 µM (inactive)	> 100 µM (inactive)	> 100 µM (inactive)	> 100 µM (inactive)	> 100 µM (inactive)	> 100 µM (inactive)		> 100 µM (inactive)	> 100 µM (inactive)		> 100 µM (inactive)	> 100 µM (inactive)
CCC(CN(C)C)C(=O)c1ccco1 (stereo not given)	> 100 µM (inactive)	> 100 µM (inactive)		> 100 µM (inactive)	> 100 µM (inactive)	> 100		> 100 µM (inactive)	23 µM (inactive)	> 100 µM (inactive)		41.4 µM (inactive)	> 100 µM (inactive)	> 100 µM (inactive)	> 100 µM (inactive)	68.5 µM (inactive)	> 100 µM (inactive)	> 100 µM (inactive)	> 100 µM (inactive)	> 100 µM (inactive)
COP(=O)(OC)C(O)/C=C(\Cl)c1ccc(Cl)cc1 (stereo not given)	19.2 µM (inactive)		21.1 µM (inactive)	> 100 µM (inactive)	> 100 µM (inactive)	25.9	32.9 µM (inactive)	28.4 µM (inactive)	18.9 µM (inactive)	43.8 µM (inactive)		> 100 µM (inactive)	23.1 µM (inactive)	19.1 µM (inactive)	23.9 µM (inactive)	25.6 µM (inactive)	> 100 µM (inactive)	> 100 µM (inactive)	> 100 µM (inactive)	25.3 µM (inactive)
Cn1cc(S(=O)(=O)NC(=O)Nc2ccc(Cl)cc2)c(=O)c2ccc(F)cc21	> 100 µM (inactive)		> 100 µM (inactive)	> 100 µM (inactive)	> 100 µM (inactive)	> 100	> 100 µM (inactive)	> 100 µM (inactive)	> 100 µM (inactive)	> 100 µM (inactive)	64.3 µM (inactive)	> 100 µM (inactive)	> 100 µM (inactive)		> 100 µM (inactive)	> 100 µM (inactive)	> 100 µM (inactive)	> 100 µM (inactive)	> 100 µM (inactive)	> 100 µM (inactive)
O=C(Nc1ccc(Cl)cc1)NS(=O)(=O)c1coc2cc(F)ccc2c1=O	> 100 µM (inactive)	> 100 µM (inactive)	86.3 µM (inactive)		> 100 µM (inactive)	19.9		> 100 µM (inactive)		> 100 µM (inactive)	> 100 µM (inactive)	> 100 µM (inactive)	> 100 µM (inactive)	> 100 µM (inactive)	> 100 µM (inactive)		> 100 µM (inactive)	> 100 µM (inactive)	52.6 µM (inactive)	> 100 µM (inactive)
CC(=O)ONC(C(=O)C(C)(C)C)C(=O)C(C)(C)C	> 100 µM (inactive)		> 100 µM (inactive)	> 100 µM (inactive)	> 100 µM (inactive)	> 100	> 100 µM (inactive)	> 100 µM (inactive)	> 100 µM (inactive)	> 100 µM (inactive)	> 100 µM (inactive)	> 100 µM (inactive)	> 100 µM (inactive)	> 100 µM (inactive)	> 100 µM (inactive)	> 100 µM (inactive)	> 100 µM (inactive)	> 100 µM (inactive)	> 100 µM (inactive)	> 100 µM (inactive)
O=C1c2ccccc2C(=O)C2NC(CCCCCSSCCCCCC3=NC4C(=O)c5ccccc5C(=O)C4N3)=NC12 (stereo not given)	28.8 µM (inactive)		> 100 µM (inactive)	> 100 µM (inactive)	> 100 µM (inactive)	40.6	> 100 µM (inactive)	> 100 µM (inactive)	5.56 µM (inactive)	96.2 µM (inactive)			> 100 µM (inactive)	> 100 µM (inactive)	45.2 µM (inactive)	> 100 µM (inactive)	4.57 µM (inactive)		> 100 µM (inactive)	> 100 µM (inactive)

From ChEMBL document CHEMBL1201862, “PubChem BioAssay data set” (2004)
